Reference: ChEMBL document CHEMBL1201862, “PubChem BioAssay data set” (2004)
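Exposure lasted 48 hours, with cells grown in 96-well plates and compounds tested at five concentrations. GI50 is the concentration that inhibits growth by half.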 Calls of active or inactive are those of the source. No stated cut-off is given here; in the data, active = GI50 up to about 1.1 µM and inactive = higher.

How the values were obtained:
Test in all cases: growth of human tumour cells (NCI), 48 h
[1] = test system: 786-0
[2] = test system: A498
[3] = test system: A549
[4] = test system: ACHN
[5] = test system: BT-549
[6] = test system: CAKI-1
[7] = test system: CCRF-CEM
[8] = test system: COLO 205
[9] = test system: DU-145
[10] = test system: EKVX
[11] = test system: HCC 2998
[12] = test system: HCT-116
[13] = test system: HCT-15
[14] = test system: HL-60
[15] = test system: HOP-62
[16] = test system: HOP-92
[17] = test system: HT-29
[18] = test system: Hs-578T
[19] = test system: IGROV-1
[20] = test system: K562
[21] = test system: KM12
[22] = test system: LOX IMVI
[23] = test system: M14
[24] = test system: MCF7
[25] = test system: MDA-MB-231
[26] = test system: MDA-MB-435
[27] = test system: MDA-N
[28] = test system: MOLT-4
[29] = test system: Malme-3M
[30] = test system: NCI-H226
[31] = test system: NCI-H23
[32] = test system: NCI-H460
[33] = test system: NCI-H522
[34] = test system: NCI/ADR-RES
[35] = test system: OVCAR-3
[36] = test system: OVCAR-4
[37] = test system: OVCAR-5
[38] = test system: OVCAR-8
[39] = test system: PC-3
[40] = test system: RPMI-8226
[41] = test system: RXF 393
[42] = test system: SF-268
[43] = test system: SF-295
[44] = test system: SF-539
[45] = test system: SK-MEL-28
[46] = test system: SK-MEL-2
[47] = test system: SK-MEL-5
[48] = test system: SK-OV-3
[49] = test system: SN12C
[50] = test system: SNB-19
[51] = test system: SNB-75
[52] = test system: SR
[53] = test system: SW-620
[54] = test system: T47D
[55] = test system: TK-10
[56] = test system: U-251
[57] = test system: UACC-257
[58] = test system: UACC-62
[59] = test system: UO-31

Question: With `Cc1ccc(N2CN3OC(=O)N(c4ccccc4)[C@@]3(c3ccccc3)C2)cc1` as the compound, how does the GI50 [1] read?
Answer: Its GI50 is 44.5 µM (inactive).

Question: What about the GI50 [2] of the same compound?
Answer: The GI50 was 32.1 µM (inactive).

Question: And the GI50 [3]?
Answer: Its GI50 is 36.5 µM (inactive).

Question: What about the GI50 [4] of the same compound?
Answer: Its GI50 is 39.4 µM (inactive).

Question: And the GI50 [5]?
Answer: The GI50 was 50.4 µM (inactive).

Question: And the GI50 [6]?
Answer: Its GI50 is 33.3 µM (inactive).

Question: What about the GI50 [7] of the same compound?
Answer: The GI50 was 34.4 µM (inactive).

Question: What about the GI50 [8] of the same compound?
Answer: The GI50 was 36.1 µM (inactive).

Question: What about the GI50 [9] of the same compound?
Answer: Its GI50 is 48.4 µM (inactive).

Question: What about the GI50 [10] of the same compound?
Answer: The GI50 was 45.7 µM (inactive).

Question: What about the GI50 [11] of the same compound?
Answer: Its GI50 is 24.9 µM (inactive).

Question: And the GI50 [12]?
Answer: The GI50 was 29.2 µM (inactive).

Question: And the GI50 [13]?
Answer: Its GI50 is 23.2 µM.

Question: What about the GI50 [14] of the same compound?
Answer: The GI50 was 26.2 µM (inactive).

Question: And the GI50 [15]?
Answer: The GI50 was 36.1 µM (inactive).

Question: And the GI50 [16]?
Answer: The GI50 was 16.9 µM (inactive).

Question: What about the GI50 [17] of the same compound?
Answer: Its GI50 is 25.1 µM (inactive).

Question: What about the GI50 [18] of the same compound?
Answer: The GI50 was 87.9 µM (inactive).

Question: And the GI50 [19]?
Answer: Its GI50 is 33 µM (inactive).

Question: What about the GI50 [20] of the same compound?
Answer: The GI50 was 22.3 µM (inactive).

Question: What about the GI50 [21] of the same compound?
Answer: The GI50 was 33.9 µM (inactive).

Question: And the GI50 [22]?
Answer: Its GI50 is 37.5 µM (inactive).

Question: What about the GI50 [23] of the same compound?
Answer: Its GI50 is 65.5 µM (inactive).

Question: What about the GI50 [24] of the same compound?
Answer: Its GI50 is 33.7 µM (inactive).

Question: And the GI50 [25]?
Answer: Its GI50 is 26.9 µM (inactive).

Question: What about the GI50 [26] of the same compound?
Answer: The GI50 was 26.4 µM (inactive).

Question: And the GI50 [27]?
Answer: The GI50 was 33.6 µM (inactive).

Question: And the GI50 [28]?
Answer: Its GI50 is 35.1 µM (inactive).

Question: And the GI50 [29]?
Answer: Its GI50 is 34 µM (inactive).

Question: And the GI50 [30]?
Answer: The GI50 was 27 µM (inactive).

Question: And the GI50 [31]?
Answer: The GI50 was 24.2 µM (inactive).

Question: And the GI50 [32]?
Answer: The GI50 was 21.6 µM (inactive).

Question: And the GI50 [33]?
Answer: The GI50 was 10.1 µM (inactive).

Question: What about the GI50 [34] of the same compound?
Answer: Its GI50 is 29 µM (inactive).

Question: And the GI50 [35]?
Answer: The GI50 was 19.4 µM (inactive).

Question: What about the GI50 [36] of the same compound?
Answer: Its GI50 is 34.2 µM (inactive).

Question: And the GI50 [37]?
Answer: The GI50 was > 100 µM (inactive).

Question: And the GI50 [38]?
Answer: The GI50 was 57 µM (inactive).

Question: What about the GI50 [39] of the same compound?
Answer: The GI50 was 34.2 µM (inactive).

Question: What about the GI50 [40] of the same compound?
Answer: Its GI50 is 45.6 µM (inactive).

Question: And the GI50 [41]?
Answer: The GI50 was 25.1 µM (inactive).

Question: What about the GI50 [42] of the same compound?
Answer: The GI50 was 50.7 µM (inactive).

Question: And the GI50 [43]?
Answer: Its GI50 is 17.5 µM (inactive).

Question: And the GI50 [44]?
Answer: Its GI50 is 29.4 µM (inactive).

Question: What about the GI50 [45] of the same compound?
Answer: Its GI50 is > 100 µM (inactive).

Question: What about the GI50 [46] of the same compound?
Answer: Its GI50 is 19.9 µM (inactive).

Question: What about the GI50 [47] of the same compound?
Answer: Its GI50 is 31.3 µM (inactive).

Question: And the GI50 [48]?
Answer: Its GI50 is 40.6 µM (inactive).

Question: What about the GI50 [49] of the same compound?
Answer: Its GI50 is 42.2 µM (inactive).

Question: What about the GI50 [50] of the same compound?
Answer: Its GI50 is 92 µM (inactive).

Question: What about the GI50 [51] of the same compound?
Answer: The GI50 was 36.6 µM (inactive).

Question: What about the GI50 [52] of the same compound?
Answer: Its GI50 is 16 µM (inactive).

Question: And the GI50 [53]?
Answer: The GI50 was 80 µM (inactive).

Question: And the GI50 [54]?
Answer: Its GI50 is 14.2 µM (inactive).

Question: What about the GI50 [55] of the same compound?
Answer: Its GI50 is 50.5 µM (inactive).

Question: And the GI50 [56]?
Answer: Its GI50 is 30.5 µM (inactive).

Question: What about the GI50 [57] of the same compound?
Answer: Its GI50 is 26.6 µM (inactive).

Question: And the GI50 [58]?
Answer: The GI50 was 21.2 µM (inactive).

Question: And the GI50 [59]?
Answer: Its GI50 is 57.4 µM (inactive).
